Data as given in patent EP0970046B1, “N-HYDROXY-2-(ALKYL, ARYL, OR HETEROARYL SULFANYL, SULFINYL OR SULFONYL)-3-SUBSTITUTED ALKYL, ARYL OR HETEROARYLAMIDES AS MATRIX METALLOPROTEINASE INHIBITORS” (Wyeth Holdings Corporation, priority 1997, dated 1998).
Like-named read-outs stand apart in the source and are kept apart here.

How the values were obtained:
Type in all cases: biochemical
[1] = target: T1, TACE (Homo sapiens, UniProt P78536); experiment: Procedure for Measuring TACE Inhibition; conditions: for IC50: read-out: TACE IC 50; for inhibition at 1 µM: read-out: TACE % inhibition at 1 micromolar
T1 construct: purchased Immunex
Method in brief: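 Single-concentration screen: test compound at 1 µM final, 10-min room-temperature preincubation with 1 µg/mL protease in Tris pH 7.4 buffer containing glycerol. Initial rate from linear fluorescence increase (340/420 nm) over 10 min after adding 100 µM peptidyl substrate; significance versus control rate by Dunnett's test.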

[2] = target: MMP 13 (Homo sapiens, UniProt P45452); experiment: MMP 13 inhibition (IC50 / manual assay; method not described); conditions: for inhibition at 1 µM: read-out: MMP 13 % inhibition at 1 micromolar
[3] = target: T2, MMP 1 (Homo sapiens, UniProt P03956); experiment: In Vitro Collagenase Assay; conditions: for inhibition at 1 µM: read-out: MMP 1 % inhibition at 1 micromolar, 1 micromolar
T2 construct: human recombinant fibroblast collagenase (truncated, mw= 18,828, WAR, Radnor)
T2 sequence (P03956 100-269 limits assumed): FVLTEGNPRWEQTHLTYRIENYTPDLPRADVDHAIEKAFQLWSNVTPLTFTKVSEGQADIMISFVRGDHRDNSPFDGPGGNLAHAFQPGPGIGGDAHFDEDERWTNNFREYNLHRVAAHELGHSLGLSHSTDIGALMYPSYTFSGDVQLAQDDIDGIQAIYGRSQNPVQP
Method in brief: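 Collagenase (5 nM final) cleaves the quenched fluorogenic peptide Dnp-Pro-Cha-Gly-Cys(Me)-His-Ala-Lys(NMa)-NH2 (10 µM final) in HCBC buffer. Solvent is below 1.0%, and the reaction is started with substrate. Rate is taken from the fluorescence slope (r^2 >0.85), and drug-treated rates are compared with control by Dunnett's test.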

[4] = target: T3, MMP 9 (Homo sapiens, UniProt P14780); experiment: In Vitro Gelatinase Assay; conditions: human neutrophil gelatinase B; for IC50: read-out: MMP 9 IC 50; for inhibition at 1 µM: read-out: MMP 9 % inhibition at 1 micromolar, 1 micromolar
T3 construct: from tissue; host or cells: human neutrophils
Method in brief: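 Human MMP-9 cleaves thiopeptide Ac-Pro-Leu-Gly(2-mercapto-4-methyl-pentanoyl)-Leu-Gly-OEt, with the released thiol reacting with DTNB. Substrate and DTNB were diluted together to 1 mM in 50 mM HEPES pH 7.5, 5 mM CaCl2. Rate came from the OD405 slope (r^2 >0.85), compared with control by Dunnett's test.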

[5] = human recombinant fibroblast collagenase, read-out: MMP 1 IC 50
[6] = human recombinant fibroblast collagenase

T1 sequence (P78536 215-824): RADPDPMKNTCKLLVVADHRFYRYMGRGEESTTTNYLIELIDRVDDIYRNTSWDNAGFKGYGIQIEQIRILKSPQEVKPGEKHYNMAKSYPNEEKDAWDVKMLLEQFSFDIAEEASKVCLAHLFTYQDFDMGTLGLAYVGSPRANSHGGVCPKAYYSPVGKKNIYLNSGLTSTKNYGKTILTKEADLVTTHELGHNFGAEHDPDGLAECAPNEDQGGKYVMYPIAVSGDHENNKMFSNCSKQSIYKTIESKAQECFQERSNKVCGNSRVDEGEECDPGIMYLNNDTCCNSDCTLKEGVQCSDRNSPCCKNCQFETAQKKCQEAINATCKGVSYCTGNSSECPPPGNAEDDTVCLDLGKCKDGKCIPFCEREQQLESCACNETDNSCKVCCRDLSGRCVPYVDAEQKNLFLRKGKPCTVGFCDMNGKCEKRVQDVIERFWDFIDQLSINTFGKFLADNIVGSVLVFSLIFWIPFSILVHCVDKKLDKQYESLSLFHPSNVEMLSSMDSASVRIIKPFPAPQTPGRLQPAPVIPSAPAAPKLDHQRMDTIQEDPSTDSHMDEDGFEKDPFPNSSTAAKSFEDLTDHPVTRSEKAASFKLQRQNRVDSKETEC
T3 sequence (P14780 94-707): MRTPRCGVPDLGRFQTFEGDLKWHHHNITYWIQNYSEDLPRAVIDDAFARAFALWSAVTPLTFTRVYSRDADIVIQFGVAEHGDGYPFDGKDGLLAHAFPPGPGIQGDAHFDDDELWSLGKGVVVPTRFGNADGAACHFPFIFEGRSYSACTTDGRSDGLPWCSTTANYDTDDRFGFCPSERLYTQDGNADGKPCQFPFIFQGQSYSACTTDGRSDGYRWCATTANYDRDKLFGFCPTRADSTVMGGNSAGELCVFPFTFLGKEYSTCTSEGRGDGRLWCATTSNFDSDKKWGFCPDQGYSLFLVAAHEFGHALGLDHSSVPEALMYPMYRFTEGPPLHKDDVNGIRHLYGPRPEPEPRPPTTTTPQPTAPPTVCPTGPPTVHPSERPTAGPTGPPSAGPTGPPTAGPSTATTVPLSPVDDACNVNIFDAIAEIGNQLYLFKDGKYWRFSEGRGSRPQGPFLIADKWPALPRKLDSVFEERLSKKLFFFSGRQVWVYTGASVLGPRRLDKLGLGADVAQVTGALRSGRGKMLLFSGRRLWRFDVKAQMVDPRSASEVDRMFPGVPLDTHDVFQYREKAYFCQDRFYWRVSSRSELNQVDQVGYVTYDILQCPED

Structure (SMILES) | IC50 [1] [nM] | IC50 ([2]; read-out: MMP 13 IC 50) [nM] | IC50 [4] [nM] | IC50 [3, 5] [nM] | inhibition at 1 µM [1] [%] | IC50 [2] [nM] | inhibition at 1 µM [2] [%] | inhibition at 1 µM [3, 6] [%] | inhibition at 1 µM [4] [%] | MMP 13 % inhibition at 1 micromolar ([2]; 1 micromolar) [%] | IC50 [3] [nM]
COc1ccc(S(=O)(=O)C2(C(=O)NO)CCN(Cc3ccc(OCCN4CCCCC4)cc3)CC2)cc1 [Example 109, 4-(4-Methoxy-benzenesulfonyl)-1-[4-(2-piperidin-1-yl-ethoxy)-benzyl]-piperidine-4-carboxylic acid hydroxyamide] | 386 | 2.5 | 2.7 |  |  |  |  |  |  |  | 393
COc1ccc(S(=O)(=O)C(Cc2cccnc2)(CC2CCCCC2)C(=O)NO)cc1 (stereo not shown) [Example 65, 3-Cyclohexyl-N-hydroxy-2-(4-methoxy-benzenesulfonyl)-2-pyridin-3-ylmethyl-propionamide] |  | 13 | 63 | 1000 | 42.2 |  |  |  |  |  | 
COc1ccc([S+]([O-])C(C(=O)NO)C(C)C)cc1 (stereo not shown) [Example 7, N-Hydroxy-2-(4-methoxy-benzenesulfinyl)-3-methyl-butyramide] |  | 42.1 | 72.9 | 844 | 33 |  |  |  |  |  | 
COc1ccc(S(=O)(=O)C2(C(=O)NO)CCN(CCOc3ccccc3)CC2)cc1 [Example 107, 4-(4-methoxy-benzenesulfonyl)-1-(2-phenoxy-ethyl)-piperidine-4-carboxylic acid hydroxyamide] | 293 | 2.5 | 26.8 | 629 |  |  |  |  |  |  | 
COc1ccc(CCN2CCC(C(=O)NO)(S(=O)(=O)c3ccc(OC)cc3)CC2)cc1 [Example 102, 4-(4-methoxy-benzenesulfonyl)-1-[2-(4-methoxyphenyl)-ethyl]-piperidine-4-carboxylic acid hydroxyamide] |  |  | 33.7 | 662 | 53 | 1.9 |  |  |  |  | 
CCCCCC(Sc1ccc(OC)cc1)C(=O)NO (stereo not shown) [Example 80, 2-(4-methoxy-phenylsulfanyl)-heptanoic acid hydroxyamide] | 191 |  |  |  |  |  | 63.6 | 22.1 | 26 |  | 
CCC(Cc1ccc(OCCN2CCOCC2)cc1)(C(=O)NO)S(=O)(=O)c1ccc(OC)cc1 (stereo not shown) [Example 33, N-Hydroxy-2-(4-methoxy-benzenesulfonyl)-2-[4-(2-morpholin-4-yl-ethoxy)-benzyl]-butyramide] |  | 18.4 | 53.9 | 318 | 23.9 |  |  |  |  |  | 
COc1ccc(S(=O)(=O)C(Cc2cccnc2)(CC(C)C)C(=O)NO)cc1 (stereo not shown) [Example 66, 2-(4-Methoxy-benzenesulfonyl)-4-methyl-2-pyridin-3-ylmethyl-pentanoic acid hydroxyamide] |  | 226 | 131 | 1600 | 42.3 |  |  |  |  |  | 
COc1ccc(S(=O)(=O)C(CCN(C(C)C)C(C)C)(Cc2ccccc2)C(=O)NO)cc1 (stereo not shown) [Example 64, 2-Benzyl-4-diisopropylamino-N-hydroxy-2-(4-methoxy-benzenesulfonyl)-butyramide] |  |  |  |  | 29.7 |  | 36.7 | 40.9 | 25.6 |  | 
COc1ccc(S(=O)(=O)C(C)(Cc2cccc(OCCN3CCOCC3)c2)C(=O)NO)cc1 (stereo not shown) [Example 30, N-Hydroxy-2-(4-methoxy-benzenesulfonyl)-2-methyl-3-[3-(2-morpholin-1-yl-ethoxy)-phenyl]-propionamide] |  | 5.7 | 8.1 | 397 | 25.2 |  |  |  |  |  | 
COc1ccc(S(=O)(=O)C(C)(Cc2ccccc2Br)C(=O)NO)cc1 (stereo not shown) [Example 55, 3-(2-Bromo-phenyl)-N-hydroxy-2-(4-methoxy-benzenesulfonyl)-2-methyl-propionamide] |  | 7 | 10 | 303 | 21.7 |  |  |  |  |  | 
CC(Cc1ccccc1)(C(=O)NO)S(=O)(=O)c1cccs1 (stereo not shown) [Example 48, 2-Methyl-3-phenyl-2-(thiophene-2-sulfonyl)-propionic acid hydroxamide] |  |  |  |  | 51.1 |  |  | 99.1 | 79.1 | 85.4 | 
CCCCCC#CCC(CC#CCCCCC)(C(=O)NO)S(=O)(=O)c1ccc(OC)cc1 [Example 71, 2-(4-methoxy-benzenesulfonyl)-2-oct-2-ynyl-dec-4-ynoic acid hydroxyamide] |  | 13 | 63 | 1000 | 42.2 |  |  |  |  |  | 
COc1ccc(S(=O)(=O)C(CCCc2ccccc2)(CCCc2ccccc2)C(=O)NO)cc1 [Example 57, 2-(4-methoxy-benzenesulfonyl)-5-phenyl-2-(3-phenyl-propyl)-pentanoic acid hydroxyamide] |  | 191 | 332 | 258 | 16.6 |  |  |  |  |  | 

More lines, in order of falling IC50 [4], values ahead:

IC50 [1] [nM] | IC50 ([2]; read-out: MMP 13 IC 50) [nM] | IC50 [4] [nM] | IC50 [3, 5] [nM] | inhibition at 1 µM [1] [%] | IC50 [2] [nM] | inhibition at 1 µM [2] [%] | inhibition at 1 µM [3, 6] [%] | inhibition at 1 µM [4] [%] | MMP 13 % inhibition at 1 micromolar ([2]; 1 micromolar) [%] | Structure (SMILES) | IC50 [3] [nM]
 | 32.7 | 83.4 | 672 | 23.8 |  |  |  |  |  | C#CCC(Cc1cccnc1)(C(=O)NO)S(=O)(=O)c1ccc(OC)cc1 (stereo not shown) [Example 75, 2-(4-Methoxy-benzenesulfonyl)-2-pyridin-3-ylmethyl-pent-4-ynoic acid hydroxyamide] | 
 | 7 | 38.6 | 1390 | 49 |  |  |  |  |  | COc1ccc(S(=O)(=O)C2(C(=O)NO)CCN(CC=C(C)C)CC2)cc1 [Example 89, 4-(4-methoxy-benzene-sulfonyl)-1-(3-methyl-but-2-enyl)piperidine-4-carboxylic acid hydroxamide] | 
 | 26.1 | 34.7 | 520 | 28.1 |  |  |  |  |  | CCC(Cc1ccc(OCCN2CCCCC2)cc1)(C(=O)NO)S(=O)(=O)c1ccc(OC)cc1 (stereo not shown) [Example 34, N-Hydroxy-2-(4-methoxy-benzenesulfonyl)-2-[4-(2-piperidin-1-yl-ethoxy)-benzyl]-butyramide] | 
 | 15.6 | 21.4 | 267 | 40.4 |  |  |  |  |  | COc1ccc([S+]([O-])C(C)(CC=C(C)C)C(=O)NO)cc1 (stereo not shown) [Example 6, 2-(4-Methoxy-benzenesulfinyl)-2,5-dimethyl-hex-4-enoic acid hydroxyamide] | 
137 | 4 | 17 | 285 |  |  |  |  |  |  | COc1ccc(S(=O)(=O)C(C)(CC=C(C)CCC=C(C)C)C(=O)NO)cc1 (stereo not shown) [Example 15, 2-(4-methoxy-benzenesulfonyl)-2,5,9-trimethyl-deca-4,8-dienoic acid hydroxyamide] | 
229 | 2 | 10.2 | 492 |  |  |  |  |  |  | COc1ccc(S(=O)(=O)C2(C(=O)NO)CCN(Cc3ccccc3)CC2)cc1 [Example 83, 1-Benzyl-4-(4-methoxy-benzenesulfonyl)-piperidine-4-carboxylic Acid hydroxyamide] | 
 | 4.3 | 9.2 | 138 | 47.9 |  |  |  |  |  | CCCCCC#CCC(Cc1cccnc1)(C(=O)NO)S(=O)(=O)c1ccc(OC)cc1 (stereo not shown) [Example 74, 2-(4-Methoxy-benzenesulfonyl)-2-pyridin-3-ylmethyl-dec-4-ynoic acid hydroxyamide] | 
180 | 24 | 9 | 325 |  |  |  |  |  |  | COc1ccc(S(=O)(=O)C(C)(CC2CCCCC2)C(=O)NO)cc1 (stereo not shown) [Example 16, 3-Cyclohexyl-N-hydroxy-2-(4-methoxy-benzenesulfonyl)-2-methyl-propionamide] | 
